ChEMBL document CHEMBL4265876, “Natural Products with Heteroatom-Rich Ring Systems” (J Nat Prod, 2017)
Converted amounts (≈) assume the structure as drawn.

What was measured:
Human alphaherpesvirus 1 = assay: Antiviral activity against HSV1; format: functional, organism-based
Micrococcus luteus [1] = assay: Antibacterial activity against Micrococcus luteus assessed as inhibition zone at 20 ug; format: functional; details: read-out: IZ
L1210 = assay: Cytotoxicity against mouse L1210 cells assessed as decrease in cell viability at 5 ug; format: functional
SW480 = assay: Cytotoxicity against human SW480 cells by MTT assay; format: functional, cell-based
SMMC-7721 = assay: Cytotoxicity against human SMMC7721 cells by MTT assay; format: functional, cell-based
HL-60 = assay: Cytotoxicity against human HL60 cells by MTT assay; format: functional, cell-based
MCF7 = assay: Cytotoxicity against human MCF7 cells by MTT assay; format: functional, cell-based
A549 = assay: Cytotoxicity against human A549 cells by MTT assay; format: functional, cell-based
[2] = molecular target: Sodium-dependent noradrenaline transporter (Homo sapiens) (UniProt P23975); assay: Inhibition of norepinephrine transporter (unknown origin) at 10 uM
[3] = molecular target: Mu-type opioid receptor (Homo sapiens) (UniProt P35372); assay: Inhibition of mu opioid receptor (unknown origin) at 10 uM
[4] = molecular target: Sodium-dependent serotonin transporter (Homo sapiens) (UniProt P31645); assay: Inhibition of serotonin transporter (unknown origin) at 10 uM
HeLa = assay: Cytotoxicity against human HeLa cells assessed as decrease in cell viability; format: functional, cell-based
[5] = molecular target: C-X-C chemokine receptor type 4 (Rattus norvegicus) (UniProt O08565); assay: Antagonist activity at CXCR4 in rat GH4C1 cells assessed as inhibition of CXCL12-induced DNA synthesis at 10 uM after 72 hrs by BrdU incorporation assay; format: functional, cell-based
[6] = molecular target: C-X-C chemokine receptor type 4 (Rattus norvegicus) (UniProt O08565); assay: Antagonist activity at CXCR4 in rat GH4C1 cells assessed as inhibition of CXCL12-induced cell migration at 0.1 uM after 72 hrs by BrdU incorporation assay; format: functional, cell-based
[7] = molecular target: Sodium-dependent dopamine transporter (Homo sapiens) (UniProt Q01959); assay: Inhibition of dopamine transporter (unknown origin) at 10 uM
3T3-L1 = assay: Cytotoxicity against mouse 3T3L1 cells assessed as decrease in cell viability; format: cell-based
C6 = assay: Cytotoxicity against rat C6 cells assessed as decrease in cell viability; format: functional, cell-based
Pyricularia oryzae = assay: Antimicrobial activity against Pyricularia orizae; format: functional
Bacillus subtilis [8] = assay: Antibacterial activity against Bacillus subtilis; format: functional
Trichophyton rubrum = assay: Antifungal activity against Trichophyton rubrum; format: functional
[9] = system: Colletotrichum gloeosporioides; assay: Antimicrobial activity against Glomerella cingulata; format: functional
Candida albicans = assay: Antifungal activity against Candida albicans; format: functional
Saccharomyces cerevisiae = assay: Antimicrobial activity against Saccharomyces cerevisiae; format: functional
Cryptococcus neoformans = assay: Antimicrobial activity against Cryptococcus neoformans; format: functional
Proteus vulgaris = assay: Antibacterial activity against Proteus vulgaris; format: functional
[10] = system: Trichophyton mentagrophytes; assay: Antimicrobial activity against Trichophyton mentagrophytes; format: functional
HGC-27 = assay: Growth inhibition of human HGC27 cells after 48 hrs by MTT assay; format: functional, cell-based; details: HGC-27, 48 h
Morganella morganii = assay: Antibacterial activity against Proteus morgana; format: functional
Serratia marcescens = assay: Antibacterial activity against Serratia marcescens; format: functional
Salmonella sp. = assay: Antibacterial activity against Salmonella sp.; format: functional
Streptococcus pyogenes = assay: Antibacterial activity against Streptococcus hemolyticus; format: functional
Pasteurella multocida = assay: Antibacterial activity against Pasteurella multocida; format: functional
Klebsiella pneumoniae = assay: Antibacterial activity against Klebsiella pneumoniae; format: functional
Herpesviridae sp. = assay: Antiviral activity against Herpes simplex virus infected in mouse assessed as mouse survival at 400 mg/kg, sc for 28 days; format: functional; details: 672 h
Haemophilus = assay: Antibacterial activity against Haemophilus sp.; format: functional
Providencia rettgeri = assay: Antibacterial activity against Proteus rettgeri; format: functional
Micrococcus luteus [11] = assay: Antibacterial activity against Micrococcus luteus ATCC 9341 after 24 hrs by serial dilution method; format: functional; details: ATCC 9341, 24 h
Pseudomonas aeruginosa = assay: Antibacterial activity against Pseudomonas aeruginosa ATCC 10145 after 24 hrs by serial dilution method; format: functional; details: ATCC 10145, 24 h
Staphylococcus aureus = assay: Antibacterial activity against Staphylococcus aureus ATCC 6538 after 24 hrs by serial dilution method; format: functional; details: ATCC 6538, 24 h
Escherichia coli = assay: Antibacterial activity against Escherichia coli ATCC 10536 after 24 hrs by serial dilution method; format: functional; details: ATCC 10536, 24 h
Bacillus subtilis [12] = assay: Antibacterial activity against Bacillus subtilis ATCC 6051 after 24 hrs by serial dilution method; format: functional; details: ATCC 6051, 24 h

Chain of C-X-C chemokine receptor type 4 (Rattus norvegicus) (O08565 whole entry): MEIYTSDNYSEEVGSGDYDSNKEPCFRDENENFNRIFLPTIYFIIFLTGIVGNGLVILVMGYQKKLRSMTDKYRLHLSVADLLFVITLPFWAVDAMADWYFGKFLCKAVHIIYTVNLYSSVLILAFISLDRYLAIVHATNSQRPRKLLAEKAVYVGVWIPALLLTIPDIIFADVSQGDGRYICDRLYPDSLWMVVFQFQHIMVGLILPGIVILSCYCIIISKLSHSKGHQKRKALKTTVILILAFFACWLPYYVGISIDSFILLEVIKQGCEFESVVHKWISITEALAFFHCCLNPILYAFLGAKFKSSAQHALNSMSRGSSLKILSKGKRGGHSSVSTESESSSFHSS
Chain of Mu-type opioid receptor (Homo sapiens) (P35372 whole entry): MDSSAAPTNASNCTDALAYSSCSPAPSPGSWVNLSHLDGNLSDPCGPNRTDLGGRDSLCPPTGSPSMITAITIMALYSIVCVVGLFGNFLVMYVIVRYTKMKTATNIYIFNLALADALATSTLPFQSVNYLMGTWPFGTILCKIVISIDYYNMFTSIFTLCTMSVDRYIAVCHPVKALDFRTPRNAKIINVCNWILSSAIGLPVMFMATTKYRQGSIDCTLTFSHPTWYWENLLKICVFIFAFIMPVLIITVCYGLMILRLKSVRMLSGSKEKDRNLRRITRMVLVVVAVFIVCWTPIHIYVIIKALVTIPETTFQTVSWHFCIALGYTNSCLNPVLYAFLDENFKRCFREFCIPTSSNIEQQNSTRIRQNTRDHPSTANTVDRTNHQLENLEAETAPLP
Chain of Sodium-dependent noradrenaline transporter (Homo sapiens) (P23975 whole entry): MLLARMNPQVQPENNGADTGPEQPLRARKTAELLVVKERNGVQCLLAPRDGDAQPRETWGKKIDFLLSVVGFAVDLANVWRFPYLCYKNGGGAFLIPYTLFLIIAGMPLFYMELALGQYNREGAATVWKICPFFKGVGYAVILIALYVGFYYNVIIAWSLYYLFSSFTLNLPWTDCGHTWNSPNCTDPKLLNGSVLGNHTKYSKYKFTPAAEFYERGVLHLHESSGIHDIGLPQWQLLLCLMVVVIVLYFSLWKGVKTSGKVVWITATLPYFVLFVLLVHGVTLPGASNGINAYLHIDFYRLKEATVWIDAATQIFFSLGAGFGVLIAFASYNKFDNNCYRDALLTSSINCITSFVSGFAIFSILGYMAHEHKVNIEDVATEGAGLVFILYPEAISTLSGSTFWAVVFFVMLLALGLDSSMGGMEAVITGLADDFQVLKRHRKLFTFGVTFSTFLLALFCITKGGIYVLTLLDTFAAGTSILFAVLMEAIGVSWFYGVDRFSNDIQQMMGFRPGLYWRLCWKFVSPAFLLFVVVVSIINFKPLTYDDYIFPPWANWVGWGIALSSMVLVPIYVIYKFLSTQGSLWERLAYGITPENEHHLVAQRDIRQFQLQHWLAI
Chain of Sodium-dependent dopamine transporter (Homo sapiens) (Q01959 whole entry): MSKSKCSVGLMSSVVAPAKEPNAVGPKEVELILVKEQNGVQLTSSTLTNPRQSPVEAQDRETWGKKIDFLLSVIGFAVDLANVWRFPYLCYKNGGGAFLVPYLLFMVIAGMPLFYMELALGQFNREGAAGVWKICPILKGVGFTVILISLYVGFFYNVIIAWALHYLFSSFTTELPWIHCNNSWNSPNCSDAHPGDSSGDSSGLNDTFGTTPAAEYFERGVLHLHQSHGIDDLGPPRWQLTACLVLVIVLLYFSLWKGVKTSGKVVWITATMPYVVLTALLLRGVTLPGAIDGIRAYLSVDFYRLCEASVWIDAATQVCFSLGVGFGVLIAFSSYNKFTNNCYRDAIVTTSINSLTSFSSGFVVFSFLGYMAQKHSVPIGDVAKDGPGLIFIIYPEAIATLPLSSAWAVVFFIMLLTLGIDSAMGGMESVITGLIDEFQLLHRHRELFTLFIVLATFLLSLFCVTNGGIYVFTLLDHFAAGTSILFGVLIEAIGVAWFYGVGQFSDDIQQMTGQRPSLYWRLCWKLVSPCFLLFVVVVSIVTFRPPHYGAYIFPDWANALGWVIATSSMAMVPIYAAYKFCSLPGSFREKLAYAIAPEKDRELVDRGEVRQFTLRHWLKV
Chain of Sodium-dependent serotonin transporter (Homo sapiens) (P31645 whole entry, looked up): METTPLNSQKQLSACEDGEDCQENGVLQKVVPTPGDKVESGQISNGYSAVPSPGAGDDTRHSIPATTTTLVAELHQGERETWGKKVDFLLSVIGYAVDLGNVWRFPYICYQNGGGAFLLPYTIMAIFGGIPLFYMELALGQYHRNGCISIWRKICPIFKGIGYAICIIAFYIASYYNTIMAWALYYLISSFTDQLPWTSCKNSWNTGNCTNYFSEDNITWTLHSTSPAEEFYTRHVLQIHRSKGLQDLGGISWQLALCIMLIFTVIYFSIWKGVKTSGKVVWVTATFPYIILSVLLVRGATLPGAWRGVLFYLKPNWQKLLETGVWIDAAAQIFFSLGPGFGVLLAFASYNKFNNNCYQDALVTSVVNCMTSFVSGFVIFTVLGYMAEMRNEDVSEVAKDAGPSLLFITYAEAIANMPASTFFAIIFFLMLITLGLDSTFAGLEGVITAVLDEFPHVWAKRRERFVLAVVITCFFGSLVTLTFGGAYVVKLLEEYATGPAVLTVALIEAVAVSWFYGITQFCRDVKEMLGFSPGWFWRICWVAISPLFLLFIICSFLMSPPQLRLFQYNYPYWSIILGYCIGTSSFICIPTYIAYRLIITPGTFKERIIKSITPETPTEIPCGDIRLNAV

C=C[C@H](O)Cc1nsc(C2=CCCS[C@@]23C(=O)Nc2ccccc23)n1
IC50 (Human alphaherpesvirus 1): 25.9 µM

CN[C@@H]1CSCON2CCc3c([nH]c4ccc(O)c(Br)c34)[C@H]12
zone of inhibition at 20 µg/disc (Micrococcus luteus [1]): 41 mm
Activity (L1210): 100%

CN1CC[C@]23c4ccccc4N[C@H]1[C@@]21CCN2CN4c5ccccc5[C@@]56CCN(C)[C@@]45N(c4c6cccc41)[C@@H]23
IC50 (SW480): > 40 µM
IC50 (SMMC-7721): > 40 µM
IC50 (HL-60): > 40 µM
IC50 (MCF7): > 40 µM
IC50 (A549): > 40 µM

N=C(N)NCCCCCNc1noc(Cc2c[nH]c3cc(Br)ccc23)n1
inhibition [2]: 68%
inhibition [3]: 103%
inhibition [4]: 22%
IC50 (HeLa): 1500 nM
inhibition [5]: 50%
inhibition [6]: 100%
inhibition [7]: 101%
IC50 (3T3-L1): 140 nM
IC50 (C6): 1500 nM

C1SSCSSS1
MIC (Pyricularia oryzae): 12.5 µg/mL (≈ 66.4 µM)
MIC (Bacillus subtilis [8]): 50 µg/mL (≈ 265 µM)
MIC (Trichophyton rubrum): 3.12 µg/mL (≈ 16.6 µM)
MIC [9]: 12.5 µg/mL (≈ 66.4 µM)
MIC (Candida albicans): 6.25 µg/mL (≈ 33.2 µM)
MIC (Saccharomyces cerevisiae): 6.25 µg/mL (≈ 33.2 µM)
MIC (Cryptococcus neoformans): 6.25 µg/mL (≈ 33.2 µM)
MIC (Proteus vulgaris): 50 µg/mL (≈ 265 µM)
MIC [10]: 3.12 µg/mL (≈ 16.6 µM)

Oc1ccc(Cc2nsc(Cc3ccc(O)cc3)n2)cc1
IC50 (HGC-27): 172 µM

CN1CN([C@H]2C[C@H](O)[C@@H](CO)O2)C(=O)NC1=O
Activity (Morganella morganii): 2 to 125 µg/mL
MIC (Serratia marcescens): 2 to 125 µg/mL (≈ 8.16 to 510 µM)
Activity (Salmonella sp.): 2 to 125 µg/mL
Activity (Streptococcus pyogenes): 2 to 125 µg/mL
Activity (Pasteurella multocida): 2 to 125 µg/mL
Activity (Klebsiella pneumoniae): 2 to 125 µg/mL
survival at 400 mg/kg (Herpesviridae sp.): 50%
Activity (Haemophilus): 2 to 125 µg/mL
Activity (Providencia rettgeri): 2 to 125 µg/mL

Cc1cc(=O)n2nc(CC(=O)c3ccccc3)nc2[nH]1 [ESSRAMYCIN]
MIC (Micrococcus luteus [11]): 1 to 8 µg/mL (≈ 3.73 to 29.8 µM)
MIC (Pseudomonas aeruginosa): 1 to 8 µg/mL (≈ 3.73 to 29.8 µM)
MIC (Staphylococcus aureus): 1 to 8 µg/mL (≈ 3.73 to 29.8 µM)
MIC (Escherichia coli): 1 to 8 µg/mL (≈ 3.73 to 29.8 µM)
MIC (Bacillus subtilis [12]): 1 to 8 µg/mL (≈ 3.73 to 29.8 µM)
